According to patent publication US5648349A, “PLA2 inhibitors” (Monsanto Company, priority 1995, dated 1997):
pIC50: −log10 of the molar value. Like-named read-outs stand apart in the source and are kept apart here.

Key:
[1] = tested on: purified calcium-independent canine myocardial PLA2; experiment: Calcium-Independent PLA2 Assay (purified canine myocardial cytosolic PLA2, release of radiolabeled oleic acid); type: biochemical; conditions: pH 7.0, 6.4 mM EGTA, 1 μM substrate, 5 min at 37° C., read-out: IC50 Canine Heart PLA2
Description: This assay consists of determining the amount of radiolabeled fatty acid which is liberated from the radiolabeled phospholipid substrate by purified calcium-independent canine myocardial PLA2 in the presence of varying concentrations of the inhibitor. The concentration of inhibitor which decreases the activity of the enzyme to 50% of the activity observed in the absence of that inhibitor is determined. This concentration is defined as the IC50.
Calcium-Independent PLA2 Assay
Purified canine myocardial cytosolic PLA2 was isolated from an ATP-agarose eluate as described by Wolf, R. A., and Gross, R. W., J. Biol. Chem., 260, 7295-7303 (1985). The calcium-independent myocardial PLA2 was incubated with selected concentrations (10^-10 to 10^-4 M) of test compound in 168 mM Tris-Cl, 6.4 mM EGTA (a calcium chelator) (pH 7.0) for 5 min. at 25° C. Appropriate controls were performed in the absence of test compound. Catalysis was initiated by injection of 1 μM radiolabeled substrate (1-O-(Z)-(1'-hexadecenyl)-2-[9,10^-3 H]-oleoyl-3-phosphorylcholine). After a 5 min. incubation at 37° C., reaction products were extracted with n-butanol, separated by thin layer chromatography, and quantified by scintillation spectrometry. PLA2 activity was compared in the presence and absence of test compound and the IC50 was determined.

sheep platelet PLA2 = experiment: Micromolar Calcium-Dependent PLA2 Assay (sheep platelet cytosolic PLA2); type: biochemical; conditions: pH 7.2, 1 μM CaCl2, 1 μM substrate, 10 min at 37° C.
Source text: (§1) Specifically, one micromolar calcium-dependent mammalian PLA2 assay was used, i.e., sheep platelet PLA2, and two millimolar calcium-dependent mammalian PLA2 assays were used, i.e., human synovial fluid PLA2 and porcine pancreatic PLA2. The PLA2 enzymes represent different groups of PLA2 enzymes. Myocardial PLA2, platelet PLA2 and secreted PLA2 enzymes (human synovial fluid PLA2 and porcine pancreatic PLA2) have very different calcium requirements, which may be typical of their respective classes.
Micromolar Calcium-Dependent PLA2 Assay
Homogeneous sheep platelet cytosolic PLA2 was prepared as described by Loeb, L. A., and Gross, R. W., J. Biol. Chem., 261, 10467-10470 (1986). The purified calcium-dependent platelet PLA2 was preincubated in 70 mM Tris-Cl (pH 7.2) containing 1 μM CaCl2 and test compound for 5 min. at 25° C. Catalysis was initiated by injection of 1 μM radiolabeled substrate (1-O-(Z)-(1'-hexadecenyl)-2-[9,10^-3 H]-oleoyl-3-phosphorylcholine). After a 10 min. incubation period at 37° C., reaction products were extracted with n-butanol, separated by thin layer chromatography, and quantified by scintillation spectrometry. PLA2 activity was compared in the presence and absence of test compound and the IC50 was determined.
See Zupan, L. A., et al, "Calcium is sufficient but not necessary for activation of sheep platelet cytosolic phospholipase A2 ", FEBS Letters, Vol. 284, No. 1, 27-30 (1991).

[2] = target: T1, human synovial fluid PLA2 (Homo sapiens, UniProt P14555); experiment: Millimolar Calcium-Dependent PLA2 Assay (human synovial fluid PLA2, [14C]-oleate labeled E. coli substrate); type: biochemical; conditions: pH 7.0, 5 mM CaCl2, 30 min at 37° C., ">>" = little or no inhibition at highest concentration used
T1 construct: Purified human synovial fluid PLA2; tissue R. C; Franson (Medical College of Virginia, Richmond, Va.); host or cells: human synovial fluid
T1 sequence (P14555 21-144): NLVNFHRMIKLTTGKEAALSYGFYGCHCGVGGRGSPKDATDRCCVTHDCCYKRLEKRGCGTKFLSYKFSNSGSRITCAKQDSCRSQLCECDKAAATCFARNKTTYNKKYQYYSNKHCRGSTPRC
Source text: as §1
(§2) Millimolar Calcium-Dependent PLA2 Assays
Purified human synovial fluid PLA2 (purified by the procedure of Fawzy, A. A. and Franson, R. C. Biophys. J. 49, 533a [1986]) was obtained from R. C. Franson (Medical College of Virginia, Richmond, Va.). PLA2 activity was measured by using [^14 C]-oleate labeled autoclaved E. coli as substrate as described by Franson, R. C., Patriarca, P., and Elsbach, P. J., Lipid Res. 15, 380-388 (1974). The assay was performed at 37° C. for 30 min. in a final volume of 100 μL 50 mM Hepes buffer (pH 7.0) containing 150 mM NaCl, 5 mM CaCl2, and E. coli cells (corresponding to 10 nmol phospholipid). The test compound or control vehicle was preincubated with PLA2 for 5 min., followed by adding E. coli to initiate the reaction. The reaction was terminated by adding 2 mL tetrahydrofuran. The reaction product, [^14 C]-oleic acid, was isolated using a 1 mL Bond Elute--NH2 column and counted by liquid scintillation spectrometry.

porcine pancreatic PLA2 = target: T2, porcine pancreatic PLA2 (Sus scrofa, UniProt P00592); experiment: Millimolar Calcium-Dependent PLA2 Assay (porcine pancreatic PLA2, [14C]-oleate labeled E. coli substrate); type: biochemical
T2 construct: Purified porcine pancreatic PLA2 was obtained from Sigma; purchased Sigma (St. Louis, Mo.); host or cells: porcine pancreas
Source text: as §1, §2
Purified porcine pancreatic PLA2 was obtained from Sigma (St. Louis, Mo.). PLA2 activity was measured by using [14C]-oleate labeled autoclaved E. coli as described by Franson, Patriarca and Elsbach (referenced above). The assay was performed at 37° C. for 5 min. in a final volume of 100 μL Tris-HCl buffer (100 mM, pH 8.0) containing 1 mM EDTA, 10 mM CaCl2, and E. coli (containing […] phospholipid). The test compound or control vehicle was preincubated with PLA2 for 5 min. followed by adding E. coli to initiate the reaction. The reaction was terminated by adding 2 mL tetrahydrofuran. The reaction product [^14 C]-oleic acid, was isolated using a 1 mL Bond Elute--NH2 column and counted by liquid scintillation spectrometry.

HL-60 cells = experiment: HL-60 Cell Assay for LTB4 and PGE2 Production (calcium ionophore A23187 induced); type: cell-based; conditions: Homo sapiens; for pIC50: A23187 5×10^-6 M
Description: An additional whole cell assay was also performed. In this assay, HL-60 cells are induced with the calcium ionophore A23187 in the presence of varying amounts of inhibitor, and the amounts of the prostaglandin E2 (PGE2) and leukotriene B4 (LTB4) which form are measured. Calcium ionophore A23187 activates a calcium-dependent PLA2 which leads to the enhanced production of the arachidonic acid metabolites PGE2 and LTB4. The concentrations of inhibitor which decrease the production of PGE2 and LTB4 by 50% relative to controls are expressed as IC50 values.
HL-60 Cell Assay for LTB4 and PGE2 Production
HL-60 cells grown exponentially in culture were induced to differentiate into granulocytes by a four day incubation with 0.8% (v/v) N,N-dimethylformamide. Prior to assay, differentiated HL-60 cells were washed once with Hanks' balanced salt solution containing 0.35 mg/mL sodium bicarbonate and 10 mM Hepes, pH 7.3 (HBSS) and resuspended in HBSS at a 3×10^6 cells/mL concentration. DMSO or test compounds solubilized in DMSO were added at 1:100 dilution to 1.0 mL HL-60 cell suspensions (3×10^6 cells) and preincubated at 37° C. for 10 min. in a shaking water bath. After an additional 5 min. incubation with 5×10^-6 M calcium ionophore, A23187 (Calbiochem, LaJolla, Calif.), the cells were centrifuged at 12,800×6 for 15 seconds and the supernatant (0.8 mL) removed and stored at -20° C. for LTB4 and PGE2 quantitation by radioimmunoassay (kits obtained from Amersham, United Kingdom and NEN Research Products, N. Billerica, Mass.).

rat neonatal myocytes = conditions: cited from earlier work
[3] = human synovial fluid, read-out: IC50 HSF PLA2
[4] = LTB4 production, ">>" = little or no inhibition at highest concentration used, read-out: IC50 HL-60 LTB4
[5] = PGE2 production, ">" inhibition but not enough for IC50, ">>" little or no inhibition at highest concentration, read-out: IC50 HL-60 PGE2
[6] = pH 8.0, 10 mM CaCl2, 5 min at 37° C., ">>" = little or no inhibition at highest concentration used, read-out: IC50 Porcine Pancreatic PLA2
[7] = IC50 HSF PLA2, human synovial fluid

T2 sequence (P00592 23-146): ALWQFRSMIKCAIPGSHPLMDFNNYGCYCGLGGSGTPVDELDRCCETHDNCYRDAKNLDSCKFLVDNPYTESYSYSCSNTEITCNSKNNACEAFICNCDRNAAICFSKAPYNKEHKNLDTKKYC

SMILES	pIC50 [1]	pIC50 (sheep platelet PLA2)	pIC50 [2, 3]	pIC50 (HL-60 cells; [4])	pIC50 (HL-60 cells; [5])	further results
CCCCCCCCC(=O)NCC#Cc1ccccc1C=C(P(=O)(OCC)OCC)P(=O)(OCC)OCC [Example 18, Tetraethyl [2-[2-[3-[(1-oxononyl)amino]-1-propynyl]phenyl]ethenylidene]bisphosphonate]	< 4.00	~4.00	–	–	–	–
CCCCCCCCCCCC#Cc1cccc(C=C(P(=O)(O)O)P(=O)(O)O)c1 [Example 2, [2-[3-(1-Tridecynyl)phenyl]ethenylidene]bisphosphonic acid]	6.35	4.96	4.51	< 5.00	< 5.00	pIC50 (porcine pancreatic PLA2): < 4.00
O=C(O)CI [iodoacetate]	–	–	–	–	–	levels of ATP, release of arachidonic acid and morphological alterations of the myocytes (rat neonatal myocytes; rat neonatal myocytes, Chien et al 1985 (cited)): lowers the levels of ATP which results in the release of arachidonic acid and morphological alterations of the myocytes
CCCCCCCCCCCC#Cc1cccc(P(=O)(OCC)OCC)c1 [Example 8, Diethyl [3-(1-tridecynyl)phenyl]phosphonate]	6.44	6.66	–	–	–	–
CCCCCCCCCCCC#Cc1ccccc1/C=C(\C(=O)OCC)P(=O)(OCC)OCC [Example 5, Ethyl 2-(diethoxyphosphinyl)-3-[2-(1-tridecynyl)phenyl]-2-E-propenoate]	6.47	5.62	< 4.00	5.89	5.64	pIC50 (porcine pancreatic PLA2; [6]): < 4.00
CCCCCCCCCCCC#Cc1cccc(C=C(P(=O)(OCC)OCC)P(=O)(OCC)OCC)c1 [Example 1, Tetraethyl [2-[3-(1-tridecynyl)phenyl]ethenylidene]bisphosphonate]	6.25	6.74	< 4.00	5.92	5.52	activation at 100 µM (porcine pancreatic PLA2; 5 min, footnote a to the entry 100 (μM), + = activation): 40%; pIC50 (porcine pancreatic PLA2; [6]): 4.00
CCCCCCCCCCCC#Cc1ccccc1C=C(P(=O)(OCC)OCC)P(=O)(OCC)OCC [Example 9, Tetraethyl [2-[2-(1-tridecynyl)phenyl]ethenylidene]bisphosphonate]	5.82	6.80	< 4.00	5.59	5.36	–
CCCCCCCCCCCC#Cc1cccc(C=C(P(=O)(O)O)P(=O)(O)O)c1 [Example 3, Disodium [2-[3-(1-tridecynyl)phenyl]ethenylidene]bisphosphonate]	6.44	5.49	–	–	–	pIC50 [2, 7]: 4.42
CCCCCCCCCCCC#Cc1ccccc1/C=C(\C(=O)OCC)P(=O)(O)O [Example 6, Ethyl E-2-phosphono-3-[2-(1-tridecynyl)phenyl]propenoate]	–	–	4.80	5.36	5.46	pIC50 (porcine pancreatic PLA2; [6]): 5.60
COC1=CCC2=C(CCC3C2CC[C@@]2(C)C3CC[C@@H]2N(C)CCCN(C)C)C1 (stereo partly drawn) [U26,384]	–	–	–	–	–	release of arachidonic acid, phospholipid degradation, sarcolemmal membrane defects and release of creatine kinase induced by iodoacetate (rat neonatal myocytes; rat neonatal myocytes treated with iodoacetate, Sen et al (cited)): prevented the release of arachidonic acid, phospholipid degradation, sarcolemmal membrane defects and the release of creatine kinase
CCCCCCCCCCCC#Cc1ccccc1C=C(P(=O)(O)O)P(=O)(O)O [Example 10, [2-[2-(1-Tridecynyl)phenyl]ethenylldene]bisphosphonic acid]	6.15	4.30	4.30	5.00	< 5.00	pIC50 (porcine pancreatic PLA2): < 4.00; activation at 10 µM (HL-60 cells; footnote b to the entry 10 (μM), + = activation, LTB4): 21%
CCCCCCCCCCCC#Cc1ccccc1/C=C/P(=O)(OCC)OCC [Example 13, Diethyl E-2-[2-(1-tridecynyl)phenyl]ethenylphosphonate]	5.52	5.96	–	–	–	–
CCCCCCCCCCCC#Cc1ccccc1C=C(P(=O)(O)O)P(=O)(O)O [Example 11, Disodium [2-[2-(1-tridecynyl)phenyl]ethenylidene]bisphosphonate]	5.72	5.55	–	–	–	pIC50 [2, 7]: 4.60
CCCCCCCCCCCC#Cc1ccccc1/C=C/P(=O)(O)O [Example 14, 2-[2-(1-Tridecynyl)phenyl]ethenylphosphonic acid]	5.35	5.54	–	–	–	–
